Here are results for twelve compounds from article PMC4409337, “Immucillins Impair Leishmania (L.) infantum chagasi and Leishmania (L.) amazonensis Multiplication In Vitro” (PLoS ONE, 2015).

As usually defined, the pIC50 is the negative decadic logarithm of the IC50, by convention in mol/L. One may read the inhibition as the relative decrease from the control value, in per cent. The pKi is −log10 of the Ki, conventionally taken in molar units. Low readings indicate a large Ki, high ones a small Ki.

In experiment [1] the test system is intracellular amastigotes of L. (L.) infantum chagasi. The settings on record: ref 44; read-out: IC50 against intracellular amastigotes; cited from earlier work.
Experiment [2] relates to L. (L.) infantum chagasi promastigotes. The experiment can be described thus: In vitro growth of promastigotes in FBS supplemented Schneider's insect medium. The format is cell-based, Leishmania (L.) infantum chagasi. The note with it: Leishmania infantum; for pIC50: single addition at 0 h, evaluated after 48 hours, 26°C, read-out: IC50 (CI 95%) on L. (L.) infantum chagasi promastigotes in vitro growth; for inhibition at 500 µM: after 96 h of culture, read-out: percent inhibition on L. (L.) infantum chagasi promastigote growth. The text has this: The strain of Leishmania (L.) infantum chagasi MHOM/BR/1974/PP75 was obtained from the Leishmania Type Culture Collection (Fundacão Oswaldo Cruz, Rio de Janeiro, RJ, Brazil) and the strain of Leishmania (L.) amazonensis (MHOM/BR/1975/Josefa) was kindly given by Professor Rosâ[…] from Universidade Federal do Rio de Janeiro. Promastigotes were maintained by weekly transfers in screw-capped glass tubes containing Schneider's insect medium (Sigma Aldrich, MO, USA), pH 7.0, supplemented with 10% Fetal Bovine Serum (FBS) at 26°C. […] Log phase promastigotes of L. (L.) infantum chagasi and L. […] Promastigotes were recorded in a Neubauer chamber after 24, 48, 72 and 96 hours of incubation at 26°C. […] The concentration of adenosine in Schneider s insect serum supplemented medium was assessed by HPLC using a C-18 reverse-phase column as described.

The subject of experiment [3] is L. (L.) amazonensis promastigotes. Described as above. In kind it is cell-based, Leishmania (L.) amazonensis. The settings on record: Leishmania amazonensis; for inhibition at 500 µM: after 96 h of culture, read-out: percent inhibition on L. (L.) amazonensis replication; for pIC50: single addition at 0 h, evaluated after 48 hours, 26°C, read-out: IC50 (CI 95%) on L. (L.) amazonensis promastigotes in vitro growth. The text has this: The strain of Leishmania (L.) infantum chagasi MHOM/BR/1974/PP75 was obtained from the Leishmania Type Culture Collection (Fundacão Oswaldo Cruz, Rio de Janeiro, RJ, Brazil) and the strain of Leishmania (L.) amazonensis (MHOM/BR/1975/Josefa) was kindly given by Professor Rosâ[…] from Universidade Federal do Rio de Janeiro. Promastigotes were maintained by weekly transfers in screw-capped glass tubes containing Schneider's insect medium (Sigma Aldrich, MO, USA), pH 7.0, supplemented with 10% Fetal Bovine Serum (FBS) at 26°C. Stock solutions (20 mM) of immucillins IA […] prepared using Milli-Q purified water. Log phase promastigotes of L. (L.) infantum chagasi and L. […] Promastigotes were recorded in a Neubauer chamber after 24, 48, 72 and 96 hours of incubation at 26°C. […] We also assayed the possibility of reversing the inhibitory effect of IA in RPMI medium by the addition of adenosine to the culture medium. The concentration of adenosine in Schneider s insect serum supplemented medium was assessed by HPLC using a C-18 reverse-phase column as described.

The target of experiment [4] is T1, Nucleoside hydrolase NH36 (Leishmania donovani, UniProt Q8WQX2).
T1 sequence (Q8WQX2 1-314): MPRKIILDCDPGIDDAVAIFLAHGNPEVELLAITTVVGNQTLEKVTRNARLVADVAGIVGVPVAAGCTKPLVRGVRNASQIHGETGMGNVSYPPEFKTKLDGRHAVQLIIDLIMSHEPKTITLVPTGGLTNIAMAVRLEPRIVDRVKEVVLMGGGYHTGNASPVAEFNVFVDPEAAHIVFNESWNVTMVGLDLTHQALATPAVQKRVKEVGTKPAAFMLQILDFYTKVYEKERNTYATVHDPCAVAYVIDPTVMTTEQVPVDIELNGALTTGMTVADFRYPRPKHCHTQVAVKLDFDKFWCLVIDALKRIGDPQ
The experiment can be described thus: Ki determination: inhibition of NH36 activity by immucillins. The note with it: 10 mM inosine as substrate, 0.5 nM NH36, pH 7.4, room temperature. In kind it is biochemical, Leishmania (L.) donovani. As to the method:
(§1) BL21DE3 E.coli were transformed with the synthetic plasmid pET 28b encoding the gene of NH36 of Leishmania (L.) donovani (EMBL, Genbank and DDJB data bases, access number AY007193) with a His6tag at the C-terminal. Expression was induced with 0.5 mM IPTG and overnight incubation at 20°C. Purification of NH36 was performed on a column of Ni-NTA Superflow resin (Qiagen, USA) eluted by a stepwise imidazole gradient and monitored by SDS-polyacrylamide gel electrophoresis and protein assay. The extinction coefficient of NH36 is 21.437 mM^-1 cm^-1 at 280 nm, as calculated with the ProtParam program from ExPASy, and was used to estimate protein concentration (http://ca.expasy.org/seqanalref/). The yield of NH36 after purification was 11.87 mg per Liter of bacterial growth culture. Non-specific His-proteins with weak interactions were eluted with 50–100 mM imidazole (S1 Fig). The purified NH36 started to elute with 150 mM imidazole. We used 250 mM of imidazol in elution buffer for purification of NH36.
The reaction mixtures contained 10 mM inosine as substrate, 50 mM Hepes (pH 7.4), 100 mM KCl, 5 mM DTT and 1 unit XOD. The hydrolysis of inosine to hypoxanthine and ribose was followed by continuous reading of optical absorbance at 293 nm, using variable concentrations of inhibitors in a CARY 300UV-visible spectrophotometer. Controls without enzyme and without inhibitors were included in all inhibition assays. The inhibition constant for each immucillin was obtained, using GraFit 5 (Erithacus Software), by fitting initial rates with variable inhibitor concentrations to the equation (vi/v0 = [S] / Km + [S] + Km[I] / Ki), where v i is the initial rate in the presence of the inhibitor, v 0 is the initial rate in the absence of the inhibitor, K m is the Michaelis constant for inosine, [S] and [I] are inosine and inhibitor concentrations, respectively, and Ki is the inhibition constant.

The test system of experiment [5] is Nucleoside hydrolase NH36 of L. (L.) donovani. The format is biochemical, Leishmania (L.) donovani. The settings on record: substrate of NH36; for k cat /K m: catalytic efficiency; for K m / k cat: 25°C, 50 mM Hepes pH 7.4. The method, then: as §1
Steady-state kinetic rates for NH36 were determined on the substrates inosine, guanosine, adenosine, uridine and cytidine. Hypoxanthine and adenine formation were coupled to xanthine oxidase (12.9 mM^-1 cm^-1 at 293 nm and 15.2 mM^-1 cm^-1 at 305 nm, respectively), and the others were followed by direct uv absorbance changes resulting from cleavage of the N-ribosidic bond. Reaction mixtures contained 50 mM Hepes (pH 7.4), 100 mM NaCl and 5 mM of DTT. One unit, and 0.1 unit of xanthine oxidase (XOD) were used as the coupling enzyme to the adenosine and inosine assays, respectively. Spectral changes for hydrolysis of guanosine, uridine and cytidine were 5.4 mM^-1 cm^-1 at 257 nm,1.8 mM^-1 cm^-1 at 280 nm and 1.8 mM^-1 cm^-1 at 288 nm, respectively. Variable concentrations of substrate and appropriate amounts of purified NH36 were added in all assays. The hydrolysis of nucleosides to bases and ribose was followed by continuous recording of optical absorbance after addition of the enzyme, in a CARY 300 UV-visible spectrophotometer. Control rates with no enzyme addition were subtracted from initial rates. Reactions with substrates were conducted at 25°C using 1 cm path length cuvettes containing 1 mL reaction volumes. Kinetic parameters of NH36 were obtained by fitting initial rates to the Michaelis−Menten equation using GraFit 5 (Erithacus Software).

For a further experiment, the system named is NH of L. (L.) major. Details: method as in PMID 10409664. The note with it: unit inferred; cited from earlier work.

pIC50, pKi: −log10 of the molar value.

On to `CCCCCCCCCCCCCCCCOP(=O)([O-])OCC[N+](C)(C)C` [Miltefosine], for which the pIC50 in experiment [1] was 5.36.

In the case of `Nc1nc2c(CN3C[C@H](CO)[C@@H](O)C3)c[nH]c2c(=O)[nH]1` [DIG], in experiment [2], the pIC50 was 4.63 and the inhibition at 500 µM amounted to 68%. In experiment [3], the inhibition at 500 µM was 67% and the pIC50 was 4.40. The same compound gave a pKi in experiment [4] of under 5.30.

As for `Nc1nc2c(ncn2[C@@H]2O[C@H](CO)[C@@H](O)[C@H]2O)c(=O)[nH]1` [Guanosine], in experiment [5], the “k cat /K m” value was determined as 1200 M⁻¹ s⁻¹, the K m was 380 ± 153 µM and the k cat is 0.47 ± 0.1 s ^-1.

`Nc1nc2c(CNC(CO)CO)c[nH]c2c(=O)[nH]1` [SMIG]: the values for the pIC50 in experiment [2] and in experiment [3] were 4.59 and 4.53, respectively. In addition, the inhibition at 500 µM in experiment [2] came out at 70%. This compound showed a pKi in experiment [4] of 5.74.

In the case of `Nc1ncnc2c1ncn2[C@@H]1O[C@H](CO)[C@@H](O)[C@H]1O` [Adenosine], in the experiment with NH of L. (L.) major, the k cat is 0.57 s⁻¹. For the same compound, in experiment [5], the “k cat /K m” value is 53000 M⁻¹ s⁻¹, the K m is 70 ± 30 µM and the k cat was determined as 3.7 ± 0.1 s ^-1.

`Nc1ncnc2c(CN3C[C@H](CO)[C@@H](O)C3)c[nH]c12` [DIA]: in experiment [2], the pIC50 is 3.96 and the inhibition at 500 µM was determined as 69%. The inhibition at 500 µM in experiment [3] was found to be 16%. In experiment [4], this compound showed a pKi of under 5.30.

For the compound `C[C@@H]1[C@H](O)[C@@H](C)/C=C/C=C/C=C/C=C/C=C/C=C/C=C/[C@H](O[C@@H]2O[C@H](C)[C@@H](O)[C@H](N)[C@@H]2O)C[C@@H]2O[C@](O)(C[C@@H](O)C[C@@H](O)[C@H](O)CC[C@@H](O)C[C@@H](O)CC(=O)O[C@H]1C)C[C@H](O)[C@H]2C(=O)O` [Amphotericin], in experiment [1], the pIC50 was 7.40.

As for `Nc1ncnc2c(CNC(CO)CO)c[nH]c12` [SMIA], the pIC50 is 3.46 in experiment [2] and 3.80 in experiment [3]. Also, the inhibition at 500 µM in experiment [2] and in experiment [3] was 71% in each case. Moreover, the pKi in experiment [4] was under 5.30.

On to `O=c1[nH]cnc2c(CN3C[C@H](CO)[C@@H](O)C3)c[nH]c12` [DIH], for which, in experiment [2], the pIC50 is 5.74 and the inhibition at 500 µM amounted to 89%. In experiment [3], the inhibition at 500 µM turned out to be 89% and the pIC50 is 5.47. Besides, in experiment [4], the pKi is under 5.30.

`CC[C@H]1OC(=O)[C@H](C)[C@@H](O[C@H]2C[C@@](C)(OC)[C@@H](O)[C@H](C)O2)[C@H](C)[C@@H](O[C@@H]2O[C@H](C)C[C@H](N(C)C)[C@H]2O)[C@](C)(O)C[C@@H](C)CN(C)[C@H](C)[C@@H](O)[C@]1(C)O` [Azitromycin]: the pIC50 in experiment [1] was 4.70.

On to `Nc1ccn([C@@H]2O[C@H](CO)[C@@H](O)[C@H]2O)c(=O)n1` [Cytidine], for which the k cat with NH of L. (L.) major is 0.36 s⁻¹. Besides, in experiment [5], the “k cat /K m” value was 9300 M⁻¹ s⁻¹, the K m is 1,403 ± 282 μM and the k cat was found to be 13.1 ± 1.1 s ^-1.

`NC[C@@H]1O[C@H](O[C@H]2[C@@H](O)[C@H](O[C@@H]3[C@@H](O)[C@H](N)C[C@H](N)[C@H]3O[C@H]3O[C@H](CO)[C@@H](O)[C@H](O)[C@H]3N)O[C@@H]2CO)[C@H](N)[C@@H](O)[C@@H]1O` [Paramomycin]: in experiment [1], the pIC50 is 3.47.
